Measurements taken from PubChem BioAssay AID1963854 (Molecular Pharmacology Branch, DTP, NCI, 2024).

Test system: 186277-243-T-J2-PDC complex spheroid viability
Assay: Anticancer human tumor 186277-243-T-J2-PDC patient-derived colon adenocarcinoma cell line growth inhibition [POLQ]
Conditions: for IC50: curve of first compound; for viability, T/C: stronger effect = lower value
Outline: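 PDC + HUVEC + MSC complex spheroids; POLQ inhibitors ± partner drugs; top conc. at/near clinical Cmax, else 10 microM (SN-38 1 microM), half-log dilutions; 37 degrees C, 5% CO2.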

[1] = second compound 0.0316 µM, first compound 0.0316 µM
[2] = second compound 0.0316 µM, first compound 0.1 µM
[3] = second compound 0.0316 µM, first compound 0.316 µM
[4] = second compound 0.0316 µM, first compound 1 µM
[5] = second compound 0.0316 µM, first compound 3.16 µM
[6] = second compound 0.0316 µM, first compound 10 µM
[7] = second compound 0.1 µM, first compound 0.0316 µM
[8] = second compound 0.1 µM, first compound 0.1 µM
[9] = second compound 0.1 µM, first compound 0.316 µM
[10] = second compound 0.1 µM, first compound 1 µM
[11] = second compound 0.1 µM, first compound 3.16 µM
[12] = second compound 0.1 µM, first compound 10 µM
[13] = second compound 0.316 µM, first compound 0.0316 µM
[14] = second compound 0.316 µM, first compound 0.1 µM
[15] = second compound 0.316 µM, first compound 0.316 µM
[16] = second compound 0.316 µM, first compound 1 µM
[17] = second compound 0.316 µM, first compound 3.16 µM
[18] = second compound 0.316 µM, first compound 10 µM
[19] = second compound 1 µM, first compound 0.0316 µM
[20] = second compound 1 µM, first compound 0.1 µM
[21] = second compound 1 µM, first compound 0.316 µM
[22] = second compound 1 µM, first compound 1 µM
[23] = second compound 1 µM, first compound 3.16 µM
[24] = second compound 1 µM, first compound 10 µM
[25] = second compound 3.16 µM, first compound 0.0316 µM
[26] = second compound 3.16 µM, first compound 0.1 µM
[27] = second compound 3.16 µM, first compound 0.316 µM
[28] = second compound 3.16 µM, first compound 1 µM
[29] = second compound 3.16 µM, first compound 3.16 µM
[30] = second compound 3.16 µM, first compound 10 µM
[31] = second compound 10 µM, first compound 0.0316 µM
[32] = second compound 10 µM, first compound 0.1 µM
[33] = second compound 10 µM, first compound 0.316 µM
[34] = second compound 10 µM, first compound 1 µM
[35] = second compound 10 µM, first compound 3.16 µM
[36] = second compound 10 µM, first compound 10 µM
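Note: spheroids exposed to compounds for seven days.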
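Throughout, for viability, T/C: 100% = DMSO vehicle control viability.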

CC1COCCN1c1cc(C2(S(C)(=N)=O)CC2)nc(-c2ccnc3[nH]ccc23)n1 (stereo not drawn) + Cc1cccc(N(C)C(=O)C2C(O)CCN2c2nc(C)cc(C(F)(F)F)c2C#N)c1
IC50 (second compound 0.0316 µM): 861 nM
IC50 (second compound 0.1 µM): 800 nM
IC50 (second compound 0.316 µM): 827 nM
IC50 (second compound 1 µM): 842 nM
IC50 (second compound 3.16 µM): 799 nM
IC50 (second compound 10 µM): 784 nM
viability, T/C [1]: 102%
viability, T/C [2]: 102%
viability, T/C [3]: 99%
viability, T/C [4]: 42.6%
viability, T/C [5]: 8.14%
viability, T/C [6]: 6.1%
viability, T/C [7]: 99.1%
viability, T/C [8]: 103%
viability, T/C [9]: 109%
viability, T/C [10]: 37.1%
viability, T/C [11]: 8.3%
viability, T/C [12]: 5.32%
viability, T/C [13]: 117%
viability, T/C [14]: 105%
viability, T/C [15]: 103%
viability, T/C [16]: 39.6%
viability, T/C [17]: 7.67%
viability, T/C [18]: 6.8%
viability, T/C [19]: 97%
viability, T/C [20]: 104%
viability, T/C [21]: 107%
viability, T/C [22]: 40.7%
viability, T/C [23]: 7.51%
viability, T/C [24]: 5.6%
viability, T/C [25]: 108%
viability, T/C [26]: 108%
viability, T/C [27]: 106%
viability, T/C [28]: 35.9%
viability, T/C [29]: 8.67%
viability, T/C [30]: 6.42%
viability, T/C [31]: 102%
viability, T/C [32]: 111%
viability, T/C [33]: 108%
viability, T/C [34]: 34.7%
viability, T/C [35]: 7.11%
viability, T/C [36]: 5.36%

COc1cccc2c1C(=O)c1c(O)c3c(c(O)c1C2=O)CC(O)(C(=O)CO)CC3OC1CC(N)C(O)C(C)O1 (stereo not drawn) + Nc1ccc(C#CCN(C(=O)Cc2ncc(C(F)(F)F)cc2C(F)(F)F)c2ccc(F)cc2)nn1
IC50 (second compound 0.0316 µM): 255 nM
IC50 (second compound 0.1 µM): 253 nM
IC50 (second compound 0.316 µM): 258 nM
IC50 (second compound 1 µM): 236 nM
IC50 (second compound 3.16 µM): 231 nM
IC50 (second compound 10 µM): 173 nM
viability, T/C [1]: 144%
viability, T/C [2]: 110%
viability, T/C [3]: 37.2%
viability, T/C [4]: 1.35%
viability, T/C [5]: 0.27%
viability, T/C [6]: 1.66%
viability, T/C [7]: 169%
viability, T/C [8]: 107%
viability, T/C [9]: 39%
viability, T/C [10]: 1.35%
viability, T/C [11]: 0.37%
viability, T/C [12]: 1.4%
viability, T/C [13]: 156%
viability, T/C [14]: 106%
viability, T/C [15]: 40.7%
viability, T/C [16]: 1.12%
viability, T/C [17]: 1.33%
viability, T/C [18]: 0.64%
viability, T/C [19]: 171%
viability, T/C [20]: 106%
viability, T/C [21]: 32.5%
viability, T/C [22]: 1.58%
viability, T/C [23]: 1.81%
viability, T/C [24]: 2.38%
viability, T/C [25]: 153%
viability, T/C [26]: 101%
viability, T/C [27]: 32.4%
viability, T/C [28]: 0.94%
viability, T/C [29]: 1.21%
viability, T/C [30]: 1.74%
viability, T/C [31]: 131%
viability, T/C [32]: 76.4%
viability, T/C [33]: 21.8%
viability, T/C [34]: 1.09%
viability, T/C [35]: 1.27%
viability, T/C [36]: 0.63%

COc1cc(C2c3cc4c(cc3C(OC3OC5COC(C)OC5C(O)C3O)C3COC(=O)C23)OCO4)cc(OC)c1O (stereo not drawn) + Cc1cccc(N(C)C(=O)C2C(O)CCN2c2nc(C)cc(C(F)(F)F)c2C#N)c1
IC50 (second compound 0.0316 µM): 1030 nM
IC50 (second compound 0.1 µM): 890 nM
IC50 (second compound 0.316 µM): 1070 nM
IC50 (second compound 1 µM): 976 nM
IC50 (second compound 3.16 µM): 749 nM
IC50 (second compound 10 µM): 528 nM
viability, T/C [1]: 102%
viability, T/C [2]: 104%
viability, T/C [3]: 79.3%
viability, T/C [4]: 48.8%
viability, T/C [5]: 30.6%
viability, T/C [6]: 14.3%
viability, T/C [7]: 106%
viability, T/C [8]: 117%
viability, T/C [9]: 76%
viability, T/C [10]: 47.5%
viability, T/C [11]: 29.2%
viability, T/C [12]: 14.4%
viability, T/C [13]: 105%
viability, T/C [14]: 99.2%
viability, T/C [15]: 80.5%
viability, T/C [16]: 48.4%
viability, T/C [17]: 31.7%
viability, T/C [18]: 14.5%
viability, T/C [19]: 93.8%
viability, T/C [20]: 115%
viability, T/C [21]: 80.7%
viability, T/C [22]: 46%
viability, T/C [23]: 36.1%
viability, T/C [24]: 12.7%
viability, T/C [25]: 105%
viability, T/C [26]: 124%
viability, T/C [27]: 66.7%
viability, T/C [28]: 46.6%
viability, T/C [29]: 27.2%
viability, T/C [30]: 13.4%
viability, T/C [31]: 99.6%
viability, T/C [32]: 106%
viability, T/C [33]: 57.2%
viability, T/C [34]: 37.6%
viability, T/C [35]: 23.3%
viability, T/C [36]: 12.2%

C#Cc1c(F)ccc2cc(O)cc(-c3ncc4c(N5CC6CCC(C5)N6)nc(OCC56CCCN5CC(F)C6)nc4c3F)c12 (stereo not drawn) + COC1C(OC(N)=O)C(O)C(Oc2ccc3c(O)c(NC(=O)c4ccc(O)c(CC=C(C)C)c4)c(=O)oc3c2C)OC1(C)C
IC50 (second compound 0.0316 µM): 88.1 nM
IC50 (second compound 0.1 µM): 91.9 nM
IC50 (second compound 0.316 µM): 98 nM
IC50 (second compound 1 µM): 95.5 nM
IC50 (second compound 3.16 µM): 88.2 nM
IC50 (second compound 10 µM): 74.6 nM
viability, T/C [1]: 78.8%
viability, T/C [2]: 47.2%
viability, T/C [3]: 17.3%
viability, T/C [4]: 13.3%
viability, T/C [5]: 5.89%
viability, T/C [6]: 3.8%
viability, T/C [7]: 73.6%
viability, T/C [8]: 48.1%
viability, T/C [9]: 24.4%
viability, T/C [10]: 10.3%
viability, T/C [11]: 8.42%
viability, T/C [12]: 3.79%
viability, T/C [13]: 87.3%
viability, T/C [14]: 49.5%
viability, T/C [15]: 21.1%
viability, T/C [16]: 9.93%
viability, T/C [17]: 5.5%
viability, T/C [18]: 3.94%
viability, T/C [19]: 92.4%
viability, T/C [20]: 48.4%
viability, T/C [21]: 15.6%
viability, T/C [22]: 8.5%
viability, T/C [23]: 5.97%
viability, T/C [24]: 3.63%
viability, T/C [25]: 73.6%
viability, T/C [26]: 47.1%
viability, T/C [27]: 19.5%
viability, T/C [28]: 7.53%
viability, T/C [29]: 5.69%
viability, T/C [30]: 3.42%
viability, T/C [31]: 74.3%
viability, T/C [32]: 42%
viability, T/C [33]: 18%
viability, T/C [34]: 9.65%
viability, T/C [35]: 8.31%
viability, T/C [36]: 3.67%
